The record followed here is the supplement of paper PMC9663587.

Compound in one test: CN(C)C/C=C/C(=O)Nc1ccc(C(=O)N2CCC[C@@H](Nc3ncc(Cl)c(-c4c[nH]c5ccccc45)n3)C2)cc1 [THZ531]
In words: GR value, 72 h; higher = faster growth (1 = untreated, <0 = killing).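 Note: breast cancer and non-malignant breast epithelial lines, nine half-log doses, viable cells counted by Hoechst and LIVE/DEAD dye imaging versus time-zero plates and DMSO controls.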 The conditions noted are these: 0.0003162 µM.
Turning to PDX1258, the GR value was 1.04 GR.
On to PDXHCI002, for which the GR value turned out to be 1.06 GR.
For the cell line SKBR3, the GR value was determined as 0.963 GR.
With SUM44PE, the GR value was found to be 0.994 GR.

Still in this test, the particulars now being: 0.001 µM.
As to MDAMB468, the GR value was found to be 0.926 GR.
As for MGH312, the GR value came out at 0.736 GR.
For the cell line PDX1258, the GR value turned out to be 0.96 GR.
Consider PDXHCI002, for which the GR value came to 0.966 GR.
In the case of SKBR3, the GR value came out at 0.975 GR.
As for SUM44PE, the GR value worked out at 0.799 GR.

Staying with this test, now noted: 0.003162 µM.
MDAMB468: the GR value was determined as 1.04 GR.
Turning to MGH312, the GR value was 1.06 GR.
PDX1258: the GR value was 1.07 GR.
Take PDXHCI002: the GR value was 1.06 GR.
On the same count and under the same terms, with SKBR3 the figure was 0.961 GR; with SUM44PE, 1.04 GR.

Staying with this test, now noted: 0.01 µM.
Consider MDAMB468, for which the GR value was 0.906 GR.
Regarding MGH312, the GR value was determined as 1.32 GR.
Same read-out and setting: the figure for PDX1258 is 1.07 GR.
Still for that read-out and setting: with PDXHCI002 the figure was 0.958 GR; with SKBR3, 1.07 GR; with SUM44PE, 0.941 GR.

The same test, now with this note: 0.03162 µM.
Take MDAMB468: the GR value came out at 0.636 GR.
Take MGH312: the GR value worked out at 0.538 GR.
As to PDX1258, the GR value was 0.765 GR.
Turning to PDXHCI002, the GR value was determined as 0.782 GR.
For the cell line SKBR3, the GR value was determined as 0.411 GR.
Turning to SUM44PE, the GR value came to 0.783 GR.

Still in this test, the particulars now being: 0.1 µM.
Regarding MDAMB468, the GR value was determined as 0.082 GR.
On the same count and under the same terms, with MGH312 the figure was -0.928 GR.
In the case of PDX1258, the GR value is -0.303 GR.
PDXHCI002: the GR value came out at 0.0491 GR.
For the cell line SKBR3, the GR value was -0.26 GR.
For the cell line SUM44PE, the GR value was -0.203 GR.

Still in this test, the particulars now being: 0.3162 µM.
MDAMB468: the GR value is -0.19 GR.
The same measure, in the same setting: the figure for MGH312 is -0.947 GR; for PDX1258 it is -0.601 GR.
For the cell line PDXHCI002, the GR value is -0.122 GR.
Still for that read-out and setting: with SKBR3 the figure was -0.481 GR.

Still in this test, the particulars now being: 1 µM.
Consider MDAMB468, for which the GR value was -0.188 GR.
Consider MGH312, for which the GR value is -0.909 GR.
As for PDX1258, the GR value is -0.509 GR.
For PDXHCI002, the GR value was -0.198 GR.
Turning to SKBR3, the GR value is -0.584 GR.

Compound in another test: CCc1cnn2c(NCc3ccc[n+]([O-])c3)cc(N3CCCC[C@H]3CCO)nc12
The test is described as above. Conditions: 0.0001 µM.
As to MDAMB468, the GR value is 0.988 GR.
Take MGH312: the GR value amounted to 0.917 GR.
As to PDX1258, the GR value came to 1.05 GR.
Turning to PDXHCI002, the GR value amounted to 1.11 GR.
In the case of SKBR3, the GR value stood at 0.95 GR.
Still for that read-out and setting: the figure for SUM44PE is 0.983 GR.

Staying with this test, now noted: 0.0003162 µM.
As to MDAMB468, the GR value amounted to 1.01 GR.
Same read-out and setting: with MGH312 the figure was 1.1 GR.
PDX1258: the GR value worked out at 1.08 GR.
For the cell line PDXHCI002, the GR value was 1.1 GR.
Turning to SKBR3, the GR value is 0.921 GR.
Same read-out and setting: with SUM44PE the figure was 1.03 GR.

The same test, now with this note: 0.001 µM.
For MDAMB468, the GR value stood at 0.985 GR.
Consider MGH312, for which the GR value was found to be 1.09 GR.
For the cell line PDX1258, the GR value was determined as 1.13 GR.
Still for that read-out and setting: the figure for PDXHCI002 is 1.11 GR; for SKBR3 it is 1.07 GR.
Regarding SUM44PE, the GR value is 1.08 GR.

Staying with this test, now noted: 0.003162 µM.
In the case of MDAMB468, the GR value was 1.03 GR.
In the case of MGH312, the GR value was 1.04 GR.
PDX1258: the GR value was 1.08 GR.
Turning to PDXHCI002, the GR value amounted to 1.05 GR.
Regarding SKBR3, the GR value was 0.933 GR.
For the cell line SUM44PE, the GR value was 0.918 GR.

Still in this test, the particulars now being: 0.01 µM.
As to MDAMB468, the GR value came to 0.863 GR.
With MGH312, the GR value came out at 0.584 GR.
Regarding PDX1258, the GR value is 0.655 GR.
As for PDXHCI002, the GR value worked out at 0.744 GR.
Turning to SKBR3, the GR value worked out at 0.0102 GR.
Regarding SUM44PE, the GR value was 0.257 GR.

The same test, now with this note: 0.03162 µM.
For the cell line MDAMB468, the GR value is -0.106 GR.
Same read-out and setting: with MGH312 the figure was -0.846 GR; with PDX1258, -0.491 GR.
Regarding PDXHCI002, the GR value is -0.331 GR.
In the case of SKBR3, the GR value was -0.581 GR.
Still for that read-out and setting: the figure for SUM44PE is -0.925 GR.

The test is the same for the next values; noted with them: 0.1 µM.
Consider MDAMB468, for which the GR value was -0.255 GR.
As for MGH312, the GR value is -0.927 GR.
On to PDX1258, for which the GR value was -0.587 GR.
As for PDXHCI002, the GR value is -0.387 GR.
Still for that read-out and setting: the figure for SKBR3 is -0.6 GR.

The same test, now with this note: 0.3162 µM.
As to MDAMB468, the GR value is -0.339 GR.
For MGH312, the GR value is -0.951 GR.
With PDX1258, the GR value was -0.579 GR.
PDXHCI002: the GR value was -0.343 GR.
The same measure, in the same setting: the figure for SKBR3 is -0.628 GR.

The same test, now with this note: 1 µM.
For the cell line MDAMB468, the GR value was -0.412 GR.
Consider MGH312, for which the GR value is -0.949 GR.
Regarding PDX1258, the GR value was -0.628 GR.
On the same count and under the same terms, with PDXHCI002 the figure was -0.365 GR.
Take SKBR3: the GR value was -0.579 GR.

Compound in another test: CN1CC[C@H](c2c(O)cc(O)c3c(=O)cc(-c4ccccc4Cl)oc23)[C@H](O)C1 [Flavopiridol]
The description is as above. The conditions noted are these: 0.0001 µM.
For MDAMB468, the GR value came out at 0.989 GR.
Turning to MGH312, the GR value turned out to be 1.11 GR.
Still for that read-out and setting: with PDX1258 the figure was 1.03 GR; with PDXHCI002, 1.02 GR.
On to SKBR3, for which the GR value is 1.04 GR.
Consider SUM44PE, for which the GR value came to 0.968 GR.

Staying with this test, now noted: 0.0003162 µM.
For the cell line MDAMB468, the GR value amounted to 0.962 GR.
The same measure, in the same setting: the figure for MGH312 is 1.12 GR.
For the cell line PDX1258, the GR value was found to be 0.973 GR.
Consider PDXHCI002, for which the GR value stood at 0.997 GR.
With SKBR3, the GR value was 0.989 GR.
With SUM44PE, the GR value worked out at 0.969 GR.

The test is the same for the next values; noted with them: 0.001 µM.
In the case of MDAMB468, the GR value was 0.929 GR.
The same measure, in the same setting: the figure for MGH312 is 0.95 GR; for PDX1258 it is 1.02 GR.
Still for that read-out and setting: the figure for PDXHCI002 is 0.973 GR.
Turning to SKBR3, the GR value worked out at 0.844 GR.
In the case of SUM44PE, the GR value amounted to 0.862 GR.

The test is the same for the next values; noted with them: 0.003162 µM.
For the cell line MDAMB468, the GR value worked out at 0.953 GR.
On to MGH312, for which the GR value came to 0.74 GR.
Still for that read-out and setting: with PDX1258 the figure was 1.07 GR.
Same read-out and setting: the figure for PDXHCI002 is 0.997 GR; for SKBR3 it is 0.823 GR; for SUM44PE it is 0.951 GR.

Still in this test, the particulars now being: 0.01 µM.
For MDAMB468, the GR value is 0.931 GR.
With MGH312, the GR value came to 0.921 GR.
